For assay [1], the target named is T1, [3H]-NMS-occupied muscarinic hM1 subtype (Homo sapiens, UniProt P11229).
T1 sequence (P11229 1-460): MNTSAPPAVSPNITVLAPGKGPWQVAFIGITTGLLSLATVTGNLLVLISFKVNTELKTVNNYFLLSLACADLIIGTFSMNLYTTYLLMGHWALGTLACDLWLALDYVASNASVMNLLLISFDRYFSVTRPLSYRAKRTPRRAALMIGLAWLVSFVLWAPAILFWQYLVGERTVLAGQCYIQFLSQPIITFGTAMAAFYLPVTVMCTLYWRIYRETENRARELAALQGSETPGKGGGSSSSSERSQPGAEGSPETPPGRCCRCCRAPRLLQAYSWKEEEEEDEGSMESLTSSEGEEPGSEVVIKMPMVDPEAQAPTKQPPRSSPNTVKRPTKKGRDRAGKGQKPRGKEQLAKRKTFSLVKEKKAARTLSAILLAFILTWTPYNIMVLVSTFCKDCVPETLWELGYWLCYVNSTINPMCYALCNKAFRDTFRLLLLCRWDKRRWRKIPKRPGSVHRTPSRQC
Nature of the assay: biochemical. As to the method: All tested compounds were purchased from Merck KGaA (Darmstadt, Germany). The radioligand binding experiments were performed with membranes from Chinese Hamster Ovary (CHO) cells stably transfected with the five cloned human muscarinic receptor subtypes (hM1-5). Membrane fractions were prepared according to the protocol, which have been previously described; membranes were stored at −80 °C until use. Nonspecific binding was defined by the radioactivity bound in the presence of 10 µM atropine.
Off-rate assays were performed as described elsewhere to estimate the affinity of the ligands for the [^3H]-NMS-occupied receptor (log Kocc). Briefly, a high concentration of membranes (about 0.1 mg/mL) was incubated with a high concentration of [^3H]-NMS (2 nM) for 60 min at room temperature (mix membrane). Next, 100 µL aliquots were distributed into polypropylene tubes that were empty or in a final volume of 1 mL binding buffer with 1 µM atropine alone and in the presence of a range of concentrations of tested compound (1 nM–0.1 mM).
The effect on the radioligand dissociation of each tested ligand was determined at 0 min and at one time point, which was chosen to be ca 2.5 dissociation half-lives of [^3H]-NMS alone from each subtype receptors. Later (80 min for hM1, 20 min for hM2 and 70 min for hM5), the samples were filtered and counted as previously reported. Non specific binding was measured as previously reported.
All the results are expressed as means ± SEM obtained from 3-4 independent experiments each one performed in duplicate.

Assay [2] has as its target T2, hM1 muscarinic receptor (Homo sapiens, UniProt P11229).
T2 construct: expressed in transfected cells; host or cells: CHO cells, stably transfected; membrane fractions
T2 sequence (P11229 1-460): T1 sequence (P11229 1-460)
Nature of the assay: Equilibrium inhibition binding with [3H]-NMS, CHO cell membranes. The conditions noted are these: [3H]-NMS 0.2 nM, mean ± SEM of 3-4 experiments, read-out: pKi hM1 (converted). In outline: (§1)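 Membranes from CHO cells stably expressing the human subtype (25–70 µg/mL) incubated with [3H]-NMS for 2 h at room temperature, filtered and counted; nonspecific binding set with 10 µM atropine. IC50 from nonlinear fits converted to Ki; 3-4 independent experiments in duplicate.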

The target of assay [3] is T3, hM2 muscarinic receptor (Homo sapiens, UniProt P08172).
T3 construct: expressed in transfected cells; host or cells: CHO cells, stably transfected; membrane fractions
T3 sequence (P08172 1-466): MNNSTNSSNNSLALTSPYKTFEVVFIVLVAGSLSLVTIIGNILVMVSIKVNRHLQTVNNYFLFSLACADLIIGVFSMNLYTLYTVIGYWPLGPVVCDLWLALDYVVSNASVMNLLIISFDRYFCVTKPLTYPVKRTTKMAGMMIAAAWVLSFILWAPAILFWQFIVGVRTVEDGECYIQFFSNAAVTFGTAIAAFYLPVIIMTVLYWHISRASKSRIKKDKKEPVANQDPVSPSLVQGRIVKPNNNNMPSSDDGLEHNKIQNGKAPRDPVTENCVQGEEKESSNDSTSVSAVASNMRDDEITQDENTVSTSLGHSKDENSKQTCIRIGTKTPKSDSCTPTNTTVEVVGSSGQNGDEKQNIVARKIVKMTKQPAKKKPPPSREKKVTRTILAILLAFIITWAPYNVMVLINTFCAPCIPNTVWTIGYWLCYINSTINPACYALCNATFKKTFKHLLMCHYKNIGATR
The description is as above. Conditions: [3H]-NMS 0.2 nM, mean ± SEM of 3-4 experiments, read-out: pKi hM2 (converted). In outline: as §1

The target in assay [4] is T4, hM4 muscarinic receptor (Homo sapiens, UniProt P08173).
T4 construct: expressed in transfected cells; host or cells: CHO cells, stably transfected; membrane fractions
T4 sequence (P08173 1-479): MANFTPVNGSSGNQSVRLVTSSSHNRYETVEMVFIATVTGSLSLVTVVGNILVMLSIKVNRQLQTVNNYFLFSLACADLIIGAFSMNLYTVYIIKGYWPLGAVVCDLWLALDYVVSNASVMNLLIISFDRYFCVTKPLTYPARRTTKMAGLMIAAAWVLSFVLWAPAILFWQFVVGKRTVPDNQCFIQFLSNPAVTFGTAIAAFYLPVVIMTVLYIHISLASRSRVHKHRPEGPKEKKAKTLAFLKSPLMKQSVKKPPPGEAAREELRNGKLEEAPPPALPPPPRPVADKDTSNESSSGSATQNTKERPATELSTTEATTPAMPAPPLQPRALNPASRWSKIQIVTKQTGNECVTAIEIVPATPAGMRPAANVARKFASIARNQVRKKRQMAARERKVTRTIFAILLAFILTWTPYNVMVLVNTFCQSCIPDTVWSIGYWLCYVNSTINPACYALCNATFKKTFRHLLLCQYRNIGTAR
The description is as above. The conditions noted are these: [3H]-NMS 0.2 nM, CHO membranes, mean ± SEM of 3-4 experiments; read-out: pKi hM4 (converted). A digest of the protocol:
as §1

Each structure is given as a SMILES string. pKd: −log10 of the molar value.

Turning to `Cc1cc(N)c2ccccc2[n+]1CCCCCCCCCC[n+]1c(C)cc(N)c2ccccc21` [dequalinium], in assay [1], the pKd was 6.69. Further, the Ki in assay [2] was 41.7 nM; in assay [3], 661 nM; in assay [4], 69.2 nM.

Broadly, the pKd is the negative decadic logarithm of the Kd, by convention in mol/L. Lower therefore signals a large Kd.
